In assay [1] the target is T1, Human GPR40 (Homo sapiens, UniProt O14842). Nature of the assay: FLIPR assay: agonist-induced calcium mobilization in GPR40/CHO NFAT BLA cells. Details: expressed in transfected cells; host or cells: CHO cells stably expressing NFAT BLA (beta-lactamase). Type of assay: cell-based. The text has this:
(§1) Human and mouse GPR40 stable cell-lines were generated in CHO cells stably expressing NFAT BLA (Beta-lactamase). A human GPR40 stable cell-line was generated in HEK cells stably expressing the aequorin expressing reporter. The expression plasmids were transfected using lipofectamine, LIFE TECHNOLOGIES (Carlsbad, Calif.), following manufacturer's instructions. Stable cell-lines were generated following drug selection.
FLIPR (Fluorimetric Imaging Plate Reader, Molecular Devices) assays were performed to measure agonist-induced calcium mobilization of the stable clones. For the FLIPR assay, one day before assay, GPR40/CHO NFAT BLA cells were seeded into black-wall-clear-bottom 384-well plates (Costar) at 1.4×10e4 cells/20 μL medium/well. The cells were incubated with 20 μl/well of the assay buffer (HBSS, 0.1% BSA, 20 mM HEPES, 2.5 mM probenecid, pH 7.4) containing 8 μM fluo-4, AM, 0.08% pluronic acid at room temperature for 100 minutes. Fluorescence output was measured using FLIPR. Compounds were dissolved in DMSO and diluted to desired concentrations with assay buffer. 13.3 μL/well of compound solution was added. The activities of the compounds in the examples have EC50 (effective concentration of compound to afford 50% of the maximum observed fluorescence) values listed in Table I.

Assay [2] concerns the target T1, Human GPR40. Description: Inositol phosphate turnover (IP1) assay in HEK cells stably expressing human GPR40. It counts as cell-based. The arrangement: expressed in transfected cells. As to conditions: HEK cells stably expressing human GPR40, 3H-inositol labeling, 60 min compound incubation. As for the experimental part: as §1
The assay is performed in a 96-well format. HEK cells stably expressing human GPR40 are plated to be 60-80% confluent within 72 h. After 72 h, the plates are aspirated and the cells washed with inositol-free DMEM (ICN). The wash media is replaced with 150 μL of 3H-inositol labeling media (inositol-free media containing 0.4% human albumin or 0.4% mouse albumin, 1× pen/strep antibiotics, glutamine, 25 mM HEPES to which is added 3H-myo-inositol NEN #NET114A 1 mCi/mL, 25 Ci/mmol diluted 1:150 in loading media with a final specific radioactivity of 1 μCi/150 μL). Alternatively, the human and mouse albumin can be added after the overnight labeling step before the addition of LiCl.
The assay is typically run the next day after 18 h labeling. On the day of the assay, 5 μL of 300 mM LiCl is added to all wells and incubated at 37 degrees for 20 min. 0.75 μL of 200× compounds are added and incubated with the cells for 60 min at 37 degrees. The media is then aspirated off and the assay terminated with the addition of 60 μL 10 mM formic acid. The cells are lysed for 60 min at room temperature. 15-30 μL of lysate is mixed with 70 μL/1 mg YSi SPA beads AMERSHAM (United Kingdom) in clear bottom Isoplates. The plates are shaken for 2 h at room temperature. Beads are allowed to settle and the plates are counted in the Wallac MICROBETA instrument. The activities of the compounds in the examples have EC50 (effective concentration of compound to afford 50% of the maximum observed […]) values listed in Table I.

T1 sequence (O14842 whole entry): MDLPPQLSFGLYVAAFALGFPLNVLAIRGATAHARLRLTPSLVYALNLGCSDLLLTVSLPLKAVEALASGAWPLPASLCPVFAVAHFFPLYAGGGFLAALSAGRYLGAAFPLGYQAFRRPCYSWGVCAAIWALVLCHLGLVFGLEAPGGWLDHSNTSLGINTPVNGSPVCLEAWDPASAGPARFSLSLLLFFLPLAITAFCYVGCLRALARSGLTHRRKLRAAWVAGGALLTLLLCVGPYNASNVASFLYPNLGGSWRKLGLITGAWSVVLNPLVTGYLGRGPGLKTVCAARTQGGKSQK

On to `O=C(O)[C@H]1[C@@H]2Cc3cc(OCc4cc(-c5cnc(NCC6CCOCC6)cc5C(F)(F)F)ccc4F)ccc3[C@@H]21` [Example 55, (1S,1aS,6aR)-4-((2-fluoro-5-(6-(((tetrahydro-2H-pyran-4-yl)methyl)amino)-4-(trifluoromethyl)pyridin-3-yl)benzyl)oxy)-1,1a,6,6a-tetrahydrocyclopropa[a]indene-1-carboxylic acid], for which the values for the EC50 in assay [1] and in assay [2] were 35.4 nM and 5.5 nM, respectively.
Taken in the same sequence, the figures for `Cc1nc(O[C@@H]2CO[C@H]3[C@@H]2OC[C@@H]3O)ccc1-c1ccc(F)c(COc2ccc3c(c2)C[C@H]2[C@H](C(=O)O)[C@@H]32)c1` [Example 31, (1S,1aS,6aR)-4-((2-fluoro-5-(6-(((3R,3aR,6S,6aR)-6-hydroxyhexahydrofuro[3,2-b]furan-3-yl)oxy)-2-methylpyridin-3-yl)benzyl)oxy)-1,1a,6,6a-tetrahydrocyclopropa[a]indene-1-carboxylic acid] were 30.9 nM and 14 nM.
Taken in the same sequence, the figures for `Cc1nc(N2CC(S(C)(=O)=O)C2)ccc1-c1ccc(F)c(COc2ccc3c(c2)C[C@H]2[C@H](C(=O)O)[C@@H]32)c1` [Example 51, (1S,1aS,6aR)-4-((2-fluoro-5-(2-methyl-6-(3-(methylsulfonyl)azetidin-1-yl)pyridin-3-yl)benzyl)oxy)-1,1a,6,6a-tetrahydrocyclopropa[a]indene-1-carboxylic acid] were 23.3 nM and 26.3 nM.
Taken in the same sequence, the figures for `Cc1cc(OCCC2(O)COC2)ncc1-c1ccc(F)c(COc2ccc3c(c2)C[C@H]2[C@H](C(=O)O)[C@@H]32)c1` [Example 30, (1S,1aS,6aR)-4-((2-fluoro-5-(6-(2-(3-hydroxyoxetan-3-yl)ethoxy)-4-methylpyridin-3-yl)benzyl)oxy)-1,1a,6,6a-tetrahydro-cyclopropa[a]indene-1-carboxylic acid] were 49.2 nM and 30 nM.
Regarding `O=C(O)[C@H]1[C@@H]2Cc3cc(OCc4cc(-c5cnc6[nH]ccc6c5)ccc4F)ccc3[C@@H]21` [Example 24, (1S,1aS,6aR)-4-((2-fluoro-5-(1H-pyrrolo[2,3-b]pyridin-5-yl)benzyl)oxy)-1,1a,6,6a-tetrahydrocyclopropa[a]indene-1-carboxylic acid], the figures for the half-maximal effective concentration (EC50) in assay [1] and in assay [2] were 73.3 nM and 304 nM, respectively.
Taken in the same sequence, the figures for `Cc1nc(OCCCOCc2ccccc2)ccc1-c1ccc(F)c(COc2ccc3c(c2)C[C@H]2[C@H](C(=O)O)[C@@H]32)c1` [Example 34, (1S,1aS,6aR)-4-((5-(6-(3-(benzyloxy)propoxy)-2-methylpyridin-3-yl)-2-fluorobenzyl)oxy)-1,1a,6,6a-tetrahydrocyclo-propa[a]indene-1-carboxylic acid] were 75.1 nM and 889 nM.
`Cc1nc(N2CCC(C)(O)CC2)ccc1-c1ccc(F)c(COc2ccc3c(c2)C[C@H]2[C@H](C(=O)O)[C@@H]32)c1` [Example 43, (1S,1aS,6aR)-4-((2-fluoro-5-(6-(4-hydroxy-4-methylpiperidin-1-yl)-2-methylpyridin-3-yl)benzyl)oxy)-1,1a,6,6a-tetrahydrocyclopropa[a]indene-1-carboxylic acid]: the EC50 in assay [1] is 75.5 nM; in assay [2], 13 nM.
Regarding `Cc1nc(OCCCC2(O)CC2)ccc1-c1ccc(F)c(COc2ccc3c(c2)C[C@H]2[C@H](C(=O)O)[C@@H]32)c1` [Example 37, (1S,1aS,6aR)-4-((2-fluoro-5-(6-(3-(1-hydroxycyclopropyl)propoxy)-2-methylpyridin-3-yl)benzyl)oxy)-1,1a,6,6a-tetrahydrocyclopropa[a]indene-1-carboxylic acid], the figures for the concentration for a half-maximal effect (EC50) in assay [1] and in assay [2] were 16.6 nM and 14.7 nM, respectively.
Taken in the same sequence, the figures for `Cc1cc(OCCCS(C)(=O)=O)nc(C)c1-c1cccc(COc2ccc3c(c2)C[C@H]2[C@H](C(=O)O)[C@@H]32)c1` [Example 4, (1S,1aS,6aR)-4-[(3-{2,4-dimethyl-6-[3-(methylsulfonyl)propoxy]pyridin-3-yl}benzyl)oxy]-1,1a,6,6a-tetrahydrocyclopropa[a]indene-1-carboxylic acid] were 89.1 nM and 15 nM.
Taken in the same sequence, the figures for `Cc1nc(N2CCC(C#N)(c3ccccc3)CC2)nc(C)c1-c1ccc(F)c(COc2ccc3c(c2)C[C@H]2[C@H](C(=O)O)[C@@H]32)c1F` [Example 46, (1S,1aS,6aR)-4-((3-(2-(4-cyano-4-phenylpiperidin-1-yl)-4,6-dimethylpyrimidin-5-yl)-2,6-difluorobenzyl)oxy)-1,1a,6,6a-tetrahydrocyclopropa[a]indene-1-carboxylic acid] were 38.7 nM and 629 nM.
Taken in the same sequence, the figures for `Cc1nc(OCC2(O)CCCCC2O)ccc1-c1ccc(F)c(COc2ccc3c(c2)C[C@H]2[C@H](C(=O)O)[C@@H]32)c1` (stereo partly drawn) [Example 26, (1S,1aS,6aR)-4-((5-(6-((1,2-dihydroxycyclohexyl)methoxy)-2-methylpyridin-3-yl)-2-fluorobenzyl)oxy)-1,1a,6,6a-tetrahydrocyclopropa[a]indene-1-carboxylic acid] were 83.8 nM and 25.5 nM.
As to `Cc1nc(NCCCS(C)(=O)=O)ccc1-c1ccc(F)c(COc2ccc3c(c2)C[C@H]2[C@H](C(=O)O)[C@@H]32)c1` [Example 11, 4-{2-Fluoro-5-[6-(3-methanesulfonyl-propylamino)-2-methyl-pyridin-3-yl]-benzyloxy}-1,1a,6,6a-tetrahydro-cyclopropa[a]indene-1-carboxylic acid], the EC50 in assay [1] stood at 55.9 nM; in assay [2] it was 43.5 nM.
Taken in the same sequence, the figures for `Cc1ccc(COc2ccc3c(c2)C[C@H]2[C@H](C(=O)O)[C@@H]32)cc1-c1cnc2c(ccn2CCCS(C)(=O)=O)c1` [Example 23, (1S,1aS,6aR)-4-((4-methyl-3-(1-(3-(methylsulfonyl)propyl)-1H-pyrrolo[2,3-b]pyridin-5-yl)benzyl)oxy)-1,1a,6,6a-tetrahydrocyclopropa[a]indene-1-carboxylic acid] were 74.2 nM and 84.5 nM.
In the case of `Cc1nc(N2CCC(O)CC2)ccc1-c1ccc(F)c(COc2ccc3c(c2)C[C@H]2[C@H](C(=O)O)[C@@H]32)c1` [Example 41, (1S,1aS,6aR)-4-((2-fluoro-5-(6-(4-hydroxypiperidin-1-yl)-2-methylpyridin-3-yl)benzyl)oxy)-1,1a,6,6a-tetrahydrocyclopropa[a]indene-1-carboxylic acid], the EC50 in assay [1] is 22.4 nM; in assay [2] it was 6 nM.
Taken in the same sequence, the figures for `Cc1nc(OC2CCC(C(C)(C)O)CC2)ccc1-c1ccc(F)c(COc2ccc3c(c2)C[C@H]2[C@H](C(=O)O)[C@@H]32)c1` (stereo partly drawn) [Example 38, (1S,1aS,6aR)-4-((2-fluoro-5-(6-((4-(2-hydroxypropan-2-yl)cyclohexyl)oxy)-2-methylpyridin-3-yl)benzyl)oxy)-1,1a,6,6a-tetrahydro-cyclopropa[a]indene-1-carboxylic acid] were 74.1 nM and 80.8 nM.
Taken in the same sequence, the figures for `Cc1nc(N2CCC(C(F)(F)F)CC2)ccc1-c1ccc(F)c(COc2ccc3c(c2)C[C@H]2[C@H](C(=O)O)[C@@H]32)c1` [Example 42, (1S,1aS,6aR)-4-((2-fluoro-5-(2-methyl-6-(4-(trifluoromethyl)piperidin-1-yl)pyridin-3-yl)benzyl)oxy)-1,1a,6,6a-tetrahydrocyclopropa[a]indene-1-carboxylic acid] were 12.8 nM and 51 nM.
Taken in the same sequence, the figures for `Cc1cc(OCCCS(C)(=O)=O)nc(C)c1-c1ccc(F)c(COc2ccc3c(c2)C[C@H]2[C@H](C(=O)O)[C@@H]32)c1` [Example 6, 4-{2-Fluoro-5-[6-(3-methanesulfonyl-propoxy)-2,4-dimethyl-pyridin-3-yl]-benzyloxy}-1,1a,6,6a-tetrahydro-cyclopropa[a]indene-1-carboxylic acid] were 57.4 nM and 22.3 nM.
As to `Cc1nc(N2CCC3(C=Cc4ccccc43)CC2)ccc1-c1ccc(F)c(COc2ccc3c(c2)C[C@H]2[C@H](C(=O)O)[C@@H]32)c1` [Example 40], the half-maximal effective concentration (EC50) in assay [1] is 32 nM; in assay [2] it was 519 nM.

The values are drawn from patent US9834563B2 (Merck Sharp & Dohme Corp., priority 2013, dated 2017).
